Data from BigSolDB 2.1.

CC(C)[C@H](C)[C@@H](O)[C@H](O)[C@@H](C)[C@H]1CC[C@H]2[C@@H]3COC(=O)[C@H]4C[C@H](O)[C@H](O)C[C@]4(C)[C@H]3CC[C@]12C
solubility (mole fraction)
Conditions | 278.15 K | 283.15 K | 288.15 K | 293.15 K | 298.15 K | 303.15 K | 308.15 K | 313.15 K | 318.15 K | 323.15 K
in THF | 0.16 | 0.185 | 0.21 | 0.239 | 0.269 | 0.297 | 0.328 | 0.361 | 0.395 | 0.43
in acetone | 0.09 | 0.106 | 0.124 | 0.145 | 0.166 | 0.188 | 0.213 | 0.239 | 0.267 | 0.296
in acetonitrile | 0.00057 | 0.00067 | 0.00078 | 0.0009 | 0.00103 | 0.00118 | 0.00133 | 0.00149 | 0.00167 | 0.00186
in chloroform | 0.00083 | 0.00095 | 0.00109 | 0.00125 | 0.00142 | 0.0016 | 0.00181 | 0.00204 | 0.00229 | 0.00256
in isopropanol | 0.00031 | 0.00036 | 0.00041 | 0.00047 | 0.00054 | 0.00062 | 0.0007 | 0.0008 | 0.00091 | 0.00104
in methanol | 0.0321 | 0.0377 | 0.0442 | 0.0511 | 0.0588 | 0.0675 | 0.077 | 0.0875 | 0.099 | 0.112
in n-butanol | 0.00046 | 0.00054 | 0.00062 | 0.00071 | 0.00082 | 0.00093 | 0.00106 | 0.00121 | 0.00137 | 0.00155
in n-heptane | 7e-05 | 0.0001 | 0.00014 | 0.00018 | 0.00022 | 0.00028 | 0.00033 | 0.00039 | 0.00046 | 0.00052
in n-hexane | 9e-05 | 0.00012 | 0.00016 | 0.0002 | 0.00025 | 0.00031 | 0.00037 | 0.00044 | 0.00051 | 0.00059
